Measurements published in patent publication US7018642B2 (The Procter & Gamble Company, priority 2001, dated 2006).

Experiments:
Format in all cases: cell-based
[1] = system: P. aeruginosa strain PAO1; assay: Biofilm prevention screen (96-well microplate, crystal violet); settings: Pseudomonas aeruginosa, positive = prevention, negative = enhancement of biofilm formation, quadruplicate, read-out: average percentage reduction of biofilm formed relative to DMSO controls
In short: (§1)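 Three strains in 96-well round-bottom plates, compound at 250–500 μM, 160 μM or 32 μM, 16–26 h at 200 rpm (30° C Pseudomonas, 37° C staphylococcus). Staining: CV 45 min at room temperature, ethanol extraction, A586. Reported as % biofilm reduction vs DMSO, n = 4.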

[2] = system: P. fluorescens strain ATCC 13525; assay: as above; settings: Pseudomonas fluorescens, positive = prevention, negative = enhancement of biofilm formation, quadruplicate, read-out: average percentage reduction of biofilm formed relative to DMSO controls; for inhibition at 32 µM: ATCC13525, 32 μM; for inhibition at 160 µM: ATCC13525, 160 μM; for inhibition at 390 µM: ATCC13525, 390 μM
In short: as §1

[3] = system: S. epidermidis strain ATCC 35984; assay: as above; settings: Staphylococcus epidermidis, positive = prevention, negative = enhancement of biofilm formation, quadruplicate, read-out: average percentage reduction of biofilm formed relative to DMSO controls; for inhibition at 32 µM: ATCC35984, 32 μM; for inhibition at 160 µM: ATCC35984, 160 μM; for inhibition at 390 µM: ATCC35984, 390 μM
In short: as §1

[4] = system: P. aeruginosa strain PAO1; assay: Improved biofilm dispersion screen (already-formed biofilms, crystal violet); settings: Pseudomonas aeruginosa, 30 mM NaOH step, positive = dispersion, negative = enhancement of pre-existing biofilm, quadruplicate, read-out: average percentage reduction of biofilm relative to the two control values (dispersion)
In short: (§2)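 Biofilms pre-grown 24 h without compound, then given fresh medium with compound at 390 μM for another 22–26 h. NaOH wash in PBS (0 mM S. epidermidis, 20 mM P. fluorescens, 30 mM P. aeruginosa; 30 min, room temperature), then crystal violet staining. Percent biofilm reduction calculated against t0 and DMSO t24 controls, quadruplicates; negative values mean enhancement.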

[5] = system: P. fluorescens strain ATCC 13525; assay: as above; settings: Pseudomonas fluorescens, ATCC13525, 20 mM NaOH step, positive = dispersion, negative = enhancement of pre-existing biofilm, quadruplicate, read-out: average percentage reduction of biofilm relative to the two control values (dispersion)
In short: as §2

[6] = system: S. epidermidis strain ATCC 35984; assay: as above; settings: Staphylococcus epidermidis, ATCC35984, no NaOH, positive = dispersion, negative = enhancement of pre-existing biofilm, quadruplicate, read-out: average percentage reduction of biofilm relative to the two control values (dispersion)
In short: as §2

Structure (SMILES) | inhibition at 32 µM [1] [%] | inhibition at 160 µM [1] [%] | inhibition at 390 µM [1] [%] | inhibition at 32 µM [2] [%] | inhibition at 160 µM [2] [%] | inhibition at 390 µM [2] [%] | inhibition at 32 µM [3] [%] | inhibition at 160 µM [3] [%] | inhibition at 390 µM [3] [%] | inhibition at 390 µM [4] [%] | inhibition at 390 µM [5] [%] | inhibition at 390 µM [6] [%]
CCCCCCCCCCNC(=O)[C@@H]1CCN1 [Compound 289, (S)-(−)-2-azetidinecarboxylic acid n-decyl amide] | 9 | -2 | 77 | -8 | 45 | 99 | 39 | 101 | 101 | -54 | 19 | 84
CCCCCCCCNC(=O)[C@@H]1CCN1C(=O)OC(C)(C)C [Compound 284] | 2 | -10 | -12 | 4 | 21 | -2 | -4 | -33 | 56 | -79 | -15 | 0
CCCCCCCCCCNC(=O)[C@H]1CCCN1 [Compound 166] | 10 | 22 | 96 | 0 | 57 | 98 | 13 | 100 | 101 | -2 | 0 | 70
CC(C)(C)OC(=O)N1CCC[C@@H]1C(=O)NCCCCCCCCCCCCNC(=O)[C@H]1CCCN1C(=O)OC(C)(C)C [Compound 225, N-(tert-Butoxycarbonyl)-D-proline 1,12-diaminododecane bisamide] | 11 | 7 | -8 | 14 | 0 | -14 | -21 | -24 | -39 | -23 | -85 | 0
CCCCCCCCNC(=O)[C@@H]1CCCN1 [Compound 31] | -37 | -125 | -44 | 3 | 5 | 52 | -7 | -1 | -27 | 21 | 32 | -11
CCCCCCNC(=O)C1CCCN1C(C)=O (racemic) [Compound 7] | -13 | -20 | -13 | -11 | -30 | -32 | -10 | 6 | -11 | -6 | -4 | 0
CCCCCCCCCCNC(=O)C1CCCN1C(C)=O (stereo not drawn) [Compound 9] | -6 | -4 | -26 | -6 | -9 | 0 | -21 | -69 | 33 | -68 | -1 | 21
CCCCCCCCNC(=O)[C@@H]1CCCCN1C(C)=O [Compound 21] | -6 | -12 | -11 | 2 | 4 | 20 | -15 | -23 | -24 | -39 | -16 | -8
CCCCNC(=O)[C@H]1CCCN1C(=O)OC(C)(C)C [Compound 152] | -4 | -9 | 2 | 5 | 5 | -7 | -5 | -13 | -8 | -9 | 1 | -4
CCCCCCCCNC(=O)[C@@H]1CCCN1C(=O)OC(C)(C)C [Compound 11] | -6 | -18 | -15 | -4 | -6 | -26 | 10 | -60 | 37 | -56 | -23 | 0
